Data set [1] has as its system Staphylococcus aureus ATCC 6538P. In words: two fold dilution test (MIC), Staphylococcus aureus ATCC 6538P. Format: cell-based. As to conditions: Streptomycin Assay Agar with yeast extract, pH 7.9, overnight. As for the experimental part: (§1) The in vitro antibiotic activity is determined by a two fold dilution test using Streptomycin Assay Agar with yeast extract (at pH 7.9). The inoculum of approximately 1×10^5 of the indicated test organism is delivered by a multiple inoculator. The test is incubated over night.
(§2) The minimum inhibitory concentrations for the compounds of Example 4, Example 8, compound 1 and Example 12 compound, are set forth in Table II. The minimum inhibitory concentrations (MIC) are expressed in micrograms per ml.

Data set [2] concerns Streptococcus faecalis ATCC 10541. The data set can be described thus: two fold dilution test (MIC), Streptococcus faecalis ATCC 10541. Format: cell-based. As to conditions: pH 7.9, overnight; for MIC (minimum inhibitory concentration): Streptomycin Assay Agar with yeast extract. As for the experimental part: as §1, §2
For data set [3], the system named is Escherichia coli ATCC 26. The data set can be described thus: two fold dilution test (MIC), Escherichia coli ATCC 26. Format: cell-based. As to conditions: pH 7.9, overnight; for MIC (minimum inhibitory concentration): Streptomycin Assay Agar with yeast extract. As for the experimental part: as §1, §2
Data set [4] concerns Escherichia coli R3. The data set can be described thus: two fold dilution test (MIC), Escherichia coli R3. In kind it is cell-based. Conditions: Streptomycin Assay Agar with yeast extract, pH 7.9, overnight. Here is the method:
as §1, §2

Data set [5] has as its system Pseudomonas aeruginosa BMH #1. The data set can be described thus: two fold dilution test (MIC), Pseudomonas aeruginosa BMH #1. In kind it is cell-based. As to conditions: Streptomycin Assay Agar with yeast extract, pH 7.9, overnight. Here is the method:
as §1, §2

Data set [6] deals with Bacillis subtilis U. of I1. 10707. In words: two fold dilution test (MIC), Bacillis subtilis U. of I1. 10707. As to conditions: Streptomycin Assay Agar with yeast extract, pH 7.9, overnight. Format: cell-based. Here is the method: as §1, §2
Data set [7] concerns Proteus vulgaris ATCC 6897. The data set can be described thus: two fold dilution test (MIC), Proteus vulgaris ATCC 6897. Conditions: pH 7.9, overnight; for MIC (minimum inhibitory concentration): Streptomycin Assay Agar with yeast extract. In kind it is cell-based. Here is the method: as §1, §2
The subject of data set [8] is Shigella sonnei ATCC 9290. The data set can be described thus: two fold dilution test (MIC), Shigella sonnei ATCC 9290. In kind it is cell-based. Conditions: pH 7.9, overnight; for MIC (minimum inhibitory concentration): Streptomycin Assay Agar with yeast extract. Here is the method: as §1, §2
Data set [9] deals with Salmonella typhi ATCC 9992. The data set can be described thus: two fold dilution test (MIC), Salmonella typhi ATCC 9992. Format: cell-based. Conditions: for MIC (minimum inhibitory concentration): Salmonella typhi ATCC 9992, Streptomycin Assay Agar with yeast extract, pH 7.9, overnight. Here is the method: as §1, §2
Data set [10] relates to Klebsiella pneumonia ATCC 10031. In words: two fold dilution test (MIC), Klebsiella pneumonia ATCC 10031. Format: cell-based. Conditions: pH 7.9, overnight; for MIC (minimum inhibitory concentration): Streptomycin Assay Agar with yeast extract. Here is the method: as §1, §2
The conditions of data set [11]: compared with gentamicin; background statement; cited from earlier work.
For data set [12], the system named is aerobic gram-negative bacteria. As to conditions: background statement; cited from earlier work.
[13] abbreviates: read-out: MIC (minimum inhibitory concentration).

Values after ≈ are worked out from the molar mass of the structure shown.

Take `CNC1C(O)C(OC2C(N)CC(N)C(OC3OC(CN)CCC3N)C2O)OCC1(C)OC` (centres unmarked) [Ex 4, 4"-O-Methylgentamicin C1a]: the “MIC (minimum inhibitory concentration)” value was 0.005 µg/mL (≈ 0.0108 µM) in [1]; 10.000 µg/mL (≈ 21.6 µM) in data set [2]; 0.005 µg/mL (≈ 0.0108 µM) in data set [3]; 10.000 µg/mL (≈ 21.6 µM) in data set [4]; 0.63 µg/mL (≈ 1.36 µM) in data set [5]; 0.005 µg/mL (≈ 0.0108 µM) in data set [6]. In addition, the “MIC (minimum inhibitory concentration)” value in data set [7] came out at 0.08 µg/mL (≈ 0.173 µM); in [8] it was 0.04 µg/mL (≈ 0.0863 µM); in data set [9] it was 0.01 µg/mL (≈ 0.0216 µM); in data set [10], 0.005 µg/mL (≈ 0.0108 µM).
Turning to `CNCC1CCC(N)C(OC2C(N)CC(N)C(OC3OCC(C)(OC)C(NC)C3O)C2O)O1` (centres unmarked) [Ex 8(1), 4"-O-Methylsagamicin], the MIC in data set [1] (ATCC6538P, read-out: MIC (minimum inhibitory concentration)) turned out to be 0.05 µg/mL (≈ 0.105 µM); in [2] (Enterococcus faecalis, ATCC10541, Streptomycin Assay Agar with yeast extract, read-out: MIC (minimum inhibitory concentration)) it was 12.5 µg/mL (≈ 26.2 µM); in data set [3] (ATCC26, Streptomycin Assay Agar with yeast extract, read-out: MIC (minimum inhibitory concentration)), 0.05 µg/mL (≈ 0.105 µM); in [4] (setting [13]), 3.1 µg/mL (≈ 6.49 µM); in data set [5] (setting [13]) it was 0.4 µg/mL (≈ 0.838 µM); in data set [6] (setting [13]), 0.005 µg/mL (≈ 0.0105 µM). For the same compound, the MIC in [7] (ATCC6897, Streptomycin Assay Agar with yeast extract, read-out: MIC (minimum inhibitory concentration)) was 0.05 µg/mL (≈ 0.105 µM); in [8] (ATCC9290, Streptomycin Assay Agar with yeast extract, read-out: MIC (minimum inhibitory concentration)), 0.05 µg/mL (≈ 0.105 µM); in data set [9] (Salmonella enterica, pH 7.9, read-out: MIC (minimum inhibitory concentration)), 0.05 µg/mL (≈ 0.105 µM); in data set [10] (Klebsiella pneumoniae, ATCC10031, Streptomycin Assay Agar with yeast extract, read-out: MIC (minimum inhibitory concentration)), 0.05 µg/mL (≈ 0.105 µM).
For `CNC1C(O)C(OC2C(N)CC(N)C(OC3OC(CN)CCC3N)C2O)OCC1(C)OC` (stereo not drawn) [Ex 12, 5-Epi-4"-O-methylgentamicin C1a], the “MIC (minimum inhibitory concentration)” value in data set [1] amounted to 0.005 µg/mL (≈ 0.0108 µM); in data set [2] it was 25.00 µg/mL (≈ 53.9 µM); in data set [3], 0.02 µg/mL (≈ 0.0431 µM); in [4], 2.5 µg/mL (≈ 5.39 µM); in [5], 0.63 µg/mL (≈ 1.36 µM); in data set [6] it was 0.005 µg/mL (≈ 0.0108 µM). The “MIC (minimum inhibitory concentration)” value in data set [7] was 0.08 µg/mL (≈ 0.173 µM); in data set [8], 0.08 µg/mL (≈ 0.173 µM); in data set [9] it was 0.01 µg/mL (≈ 0.0216 µM); in [10] it was 0.005 µg/mL (≈ 0.0108 µM).
On to `CNCC1CCC(N)C(OC2C(N)CC(N)C(OC3OCC(C)(O)C(NC)C3O)C2O)O1` (centres unmarked) [Sagamicin, sagamicin], for which the ototoxicity result in data set [11] was “lower ototoxicity than does gentamicin”.
For gentamicin, the “anti-bacterial spectrum / effectiveness” value in data set [12] is “effective against most aerobic gram-negative bacteria”.

These data come from patent publication US4223024A, “4"-O-Alkylgentamicins and sagamicins” (Abbott Laboratories, priority 1979, dated 1980).
